According to patent EP2276483B1, “SOLID FORMS COMPRISING (+)-2-[1-(3-ETHOXY-4-METHOXYPHENYL)-2-METHYLSULFONYLETHYL]-4-ACETYLAMINOISOINDOLINE-1,3-DIONE, COMPOSITIONS THEREOF, AND USES THEREOF” (CELGENE CORPORATION, priority 2008, dated 2009):
≈ marks a conversion by molar mass, not a printed value. Where two headings read alike, the source gives them in different places.

Experiments:
[1] = Stability Studies of solid forms; assay type: physicochemical
Procedure: Stability Studies. The stabilities of Forms A, B, C and D were studied by exposing the solid samples to the stress condition of 40 °C / 75% RH for four weeks. Moreover, the stabilities of Forms A, B, C and D in different solvents were studied by equilibration in different solvents at 40 °C for four weeks. The slurries then were filtered and dried in the air. Solid samples obtained from the stability experiments were analyzed by XRPD and DSC.

[2] = Interconversion Studies of solid forms; assay type: physicochemical; conditions: EQ in acetone:ethanol (1:1) at 25 °C; slurry agitated at least 2 days
Procedure: Interconversion Studies. Interconversion experiments were performed by making slurries of a solid form in a saturated solvent. The slurries were agitated for at least 2 days at about 25 °C. The saturated solution was removed by filtration and the solid was dried in the air.

[3] = Hygroscopicity studies (DVS moisture sorption/desorption); assay type: physicochemical; conditions: for mass change of the starting mass of the sample (moisture sorption): RH increased from about 0% to about 95% RH; for solid-state transformation as a result of DVS analysis (XRPD): after full adsorption/desorption cycle, about 0% to about 95% RH, about 25 °C
Procedure: Hygroscopicity studies. The hygroscopicity of various solid forms was studied using a Surface Measurement Systems DVS instrument. Typically a sample size of between about 10-50 mg was loaded into the DVS instrument sample pan and the sample was analyzed on a DVS automated sorption analyzer at about 25 °C. The relative humidity was increased in increments of about 10% from about 0% to about 95% RH: The relative humidity was then decreased in a similar manner to accomplish a full adsorption/desorption cycle. The mass was recorded at periodic intervals throughout the experiment.
Hygroscopicity Studies. […] Table 6. Solubility Study on Form B

[4] = Compression Studies of solid forms; conditions: 2000 psi force for at least one minute
[5] = Solubility Studies in solvents; assay type: physicochemical; conditions: 25 °C, thermodynamic from solid, about 25 °C, read-out: Approximate Solubility
Procedure: Solubility Studies. A weighed sample of Compound A (about 100 mg) was treated with about 2 mL of the test solvent. The solvents used were either reagent or HPLC grade. The resulting mixture was agitated for at least 24 hours at about 25 °C. When all of the solids were dissolved by visual inspection, the estimated solubilities were calculated. The solubilities were estimated from these experiments based on the total volume of solvent used to give a solution. The actual solubilities may be greater than those calculated due to the use of large amount of solvent or to a slow rate of dissolution. […] A known volume of filtrate was evaporated to dryness and the weight of the residue was measured.
Solubility Studies. […] Form B was also found to have low solubility in several solvents including n-butanol, heptane, 2-propanol, toluene and water (less than about 1 mg/mL).

[6] = EQ in ethanol at 40 °C for 4 weeks
[7] = EQ in heptane at 40 °C for 4 weeks
[8] = EQ in toluene at 40 °C for 4 weeks
[9] = EQ in water at 40 °C for 4 weeks

SMILES: CCOc1cc(C(CS(C)(=O)=O)N2C(=O)c3cccc(NC(C)=O)c3C2=O)ccc1OC (single isomer, unassigned; (+)) [Form A, (+)-2-[1-(3-ethoxy-4-methoxyphenyl)-2-methylsulfonylethyl]-4-acetylaminoisoindoline-1,3-dione]
- Analysis by XRPD (resulting form) ([1]; 40 °C / 75% RH, 4 weeks): Form A
- Appearance ([1]; 40 °C / 75% RH, 4 weeks): White solid
- Analysis by XRPD (resulting form) [1, 6]: Form F
- Analysis by XRPD (resulting form) [1, 7]: Form A
- Analysis by XRPD (resulting form) [1, 8]: Form C
- Analysis by XRPD (resulting form) [1, 9]: Form A
- Analysis by XRPD (resulting form) [2]: Form B
- mass change of the starting mass of the sample (moisture sorption) [3]: about 0.4%
- solid-state transformation as a result of DVS analysis (XRPD) [3]: none of the forms analyzed underwent substantial solid-state transformation
- physical stability upon compression by XRPD analysis [4]: substantially physically stable

SMILES: CCOc1cc(C(CS(C)(=O)=O)N2C(=O)c3cccc(NC(C)=O)c3C2=O)ccc1OC (single isomer, unassigned; (+)) [Form B, (+)-2-[1-(3-ethoxy-4-methoxyphenyl)-2-methylsulfonylethyl]-4-acetylaminoisoindoline-1,3-dione]
- solubility ([5]; 2-propanol, organic solvent or mixture, 2-Propanol): < 1000 µg/mL
- solubility ([5]; absolute ethanol, organic solvent or mixture, Absolute ethanol): 1380 µg/mL (≈ 3 mM)
- solubility ([5]; acetone, organic solvent or mixture, Acetone): > 50000 µg/mL
- solubility ([5]; acetonitrile, organic solvent or mixture, Acetonitrile): > 50000 µg/mL
- solubility ([5]; ethanol:water (1:1), aqueous with cosolvent or surfactant or cyclodextrin, Ethanol: Water (1:1)): 2860 µg/mL (≈ 6.21 mM)
- solubility ([5]; ethyl acetate, organic solvent or mixture, Ethyl acetate): ~30200 µg/mL (≈ 65.5 mM)
- solubility ([5]; methanol, organic solvent or mixture, Methanol): 4050 µg/mL (≈ 8.79 mM)
- solubility ([5]; methyl ethyl ketone, organic solvent or mixture, Methyl ethyl ketone): > 50000 µg/mL
- solubility ([5]; methyl t-butyl ether, organic solvent or mixture, Methyl t-butyl ether): 1170 µg/mL (≈ 2.54 mM)
- solubility ([5]; methylene chloride, organic solvent or mixture, Methylene chloride): > 50000 µg/mL
- solubility ([5]; n-butanol, organic solvent or mixture, n-Butanol): < 1000 µg/mL
- solubility ([5]; n-butyl acetate, organic solvent or mixture, n-Butyl acetate): 9750 µg/mL (≈ 21.2 mM)
- solubility ([5]; tetrahydrofuran, organic solvent or mixture, Tetrahydrofuran): > 50000 µg/mL
- solubility ([5]; toluene, organic solvent or mixture, Toluene): < 1000 µg/mL
- solubility ([5]; water, water, Water): < 1000 µg/mL
- Analysis by XRPD (resulting form) ([1]; 40 °C / 75% RH, 4 weeks): Form B
- Appearance ([1]; 40 °C / 75% RH, 4 weeks): White solid
- Analysis by XRPD (resulting form) [1, 6]: Form B
- Analysis by XRPD (resulting form) [1, 7]: Form B
- Analysis by XRPD (resulting form) [1, 8]: Form B
- Analysis by XRPD (resulting form) [1, 9]: Form B
- mass change of the starting mass of the sample (moisture sorption) [3]: about 0.6%
- solid-state transformation as a result of DVS analysis (XRPD) [3]: none of the forms analyzed underwent substantial solid-state transformation
- physical stability upon compression by XRPD analysis [4]: substantially physically stable

SMILES: CCOc1cc(C(CS(C)(=O)=O)N2C(=O)c3cccc(NC(C)=O)c3C2=O)ccc1OC (single isomer, unassigned; (+)) [Form C, (+)-2-[1-(3-ethoxy-4-methoxyphenyl)-2-methylsulfonylethyl]-4-acetylaminoisoindoline-1,3-dione]
- Analysis by XRPD (resulting form) ([1]; 40 °C / 75% RH, 4 weeks): Form C
- Appearance ([1]; 40 °C / 75% RH, 4 weeks): Yellow solid
- Analysis by XRPD (resulting form) [1, 6]: Form C
- Analysis by XRPD (resulting form) [1, 7]: Form C
- Analysis by XRPD (resulting form) [1, 8]: Form C
- Analysis by XRPD (resulting form) [1, 9]: Form C
- Analysis by XRPD (resulting form) [2]: Form C
- mass change of the starting mass of the sample (moisture sorption) [3]: about 0.5%
- solid-state transformation as a result of DVS analysis (XRPD) [3]: none of the forms analyzed underwent substantial solid-state transformation
- physical stability upon compression by XRPD analysis [4]: substantially physically stable

SMILES: CCOc1cc(C(CS(C)(=O)=O)N2C(=O)c3cccc(NC(C)=O)c3C2=O)ccc1OC (single isomer, unassigned; (+)) [Form D, (+)-2-[1-(3-ethoxy-4-methoxyphenyl)-2-methylsulfonylethyl]-4-acetylaminoisoindoline-1,3-dione]
- Analysis by XRPD (resulting form) ([1]; 40 °C / 75% RH, 4 weeks): Form D
- Appearance ([1]; 40 °C / 75% RH, 4 weeks): White solid
- Analysis by XRPD (resulting form) [1, 6]: Form B
- Analysis by XRPD (resulting form) [1, 7]: Form B
- Analysis by XRPD (resulting form) [1, 8]: Form C
- Analysis by XRPD (resulting form) [1, 9]: Form B
- Analysis by XRPD (resulting form) [2]: Form B
- mass change of the starting mass of the sample (moisture sorption) [3]: about 1.5%
- solid-state transformation as a result of DVS analysis (XRPD) [3]: none of the forms analyzed underwent substantial solid-state transformation
- physical stability upon compression by XRPD analysis [4]: substantially physically stable

SMILES: CCOc1cc(C(CS(C)(=O)=O)N2C(=O)c3cccc(NC(C)=O)c3C2=O)ccc1OC (single isomer, unassigned; (+)) [Form E, (+)-2-[1-(3-ethoxy-4-methoxyphenyl)-2-methylsulfonylethyl]-4-acetylaminoisoindoline-1,3-dione]
- Analysis by XRPD (resulting form) [2]: Form B
- mass change of the starting mass of the sample (moisture sorption) [3]: about 5.1%
- solid-state transformation as a result of DVS analysis (XRPD) [3]: none of the forms analyzed underwent substantial solid-state transformation

SMILES: CCOc1cc(C(CS(C)(=O)=O)N2C(=O)c3cccc(NC(C)=O)c3C2=O)ccc1OC (single isomer, unassigned; (+)) [Form F, (+)-2-[1-(3-ethoxy-4-methoxyphenyl)-2-methylsulfonylethyl]-4-acetylaminoisoindoline-1,3-dione]
- Analysis by XRPD (resulting form) [2]: Form F
- mass change of the starting mass of the sample (moisture sorption) [3]: about 0.2%
- solid-state transformation as a result of DVS analysis (XRPD) [3]: none of the forms analyzed underwent substantial solid-state transformation

SMILES: CCOc1cc(C(CS(C)(=O)=O)N2C(=O)c3cccc(NC(C)=O)c3C2=O)ccc1OC (single isomer, unassigned; (+)) [Form G, (+)-2-[1-(3-ethoxy-4-methoxyphenyl)-2-methylsulfonylethyl]-4-acetylaminoisoindoline-1,3-dione]
- Analysis by XRPD (resulting form) [2]: Form B
- mass change of the starting mass of the sample (moisture sorption) [3]: about 0.4%
- solid-state transformation as a result of DVS analysis (XRPD) [3]: none of the forms analyzed underwent substantial solid-state transformation
